From publication PMC8580996, “2-Oxoglutarate derivatives can selectively enhance or inhibit the activity of human oxygenases” (Nature Communications, 2021)
Values joined by “and” are separate entries in the source; they are usually repeats but may differ in a detail not shown here. Equal entries are not always repeated. Where two headings read alike, the source gives them in different places.

Key:
FIH [1] = target: T1, FIH (Homo sapiens, UniProt Q9NWT6); test: SPE-MS FIH turnover (cosubstrate) assay in the absence of 2OG; format: biochemical; conditions: 330 μM 2OG or 2OG derivative, no 2OG, t = 15 min
Method: The ability of 35 synthetic C3/C4-substituted 2OG derivatives, which were prepared via a reported procedure (Supplementary Fig. 1 and Supplementary Methods)[21], to sustain catalysis by purified recombinant FIH in the absence of 2OG was examined using an assay directly monitoring substrate depletion and product formation (i.e., a +16 Da mass shift) by solid-phase extraction (SPE) coupled to mass spectrometry (SPE-MS)[44],[45]. […] (i.e. CA1–20)[47], were used as FIH substrates to test for potential substrate-dependent differences in terms of cosubstrate analog selectivity.
Assay samples were aspirated under vacuum for 0.6 s and loaded onto a C4 SPE cartridge. After loading, the C4 SPE cartridge was washed with 0.1%v/v aqueous formic acid to remove non-volatile buffer salts (5.5 s, 1.5 mL/min). […] The mass spectrometer was operated using the MassHunter Workstation B.08.00 software (Agilent), the mass spectrometer parameters were: capillary voltage (4000 V), nozzle voltage (1000 V), fragmentor voltage (365 V), gas temperature (280 °C), gas flow (13 L/min), sheath gas temperature (350 °C), sheath gas flow (12 L/min). […] Data were exported into Microsoft Excel and used to calculate the % conversion of the hydroxylation reaction using the equation: % conversion = 100 × (integral product peptide)/(integral substrate peptide+integral product peptide). […] Z′-factors were calculated according to the cited literature using Microsoft Excel (Supplementary Fig. 26)[83].

FIH [2] = target: T1, FIH; test: SPE-MS FIH inhibition assay; format: biochemical; on IC50 FIH: 0.15 µM FIH
Method: FIH inhibition assays were performed as described, using cosubstrate/cofactor stock solutions (L-ascorbic acid, LAA: 50 mM in MQ-grade water; 2-oxoglutarate, 2OG: 10 mM in MQ-grade water; ammonium iron(II) sulfate hexahydrate, FAS, (NH4)2Fe(SO4)2·6H2O: 400 mM in 20 mM HCl diluted to 1 mM in MQ-grade water), which were freshly prepared from commercially-sourced solids (Sigma Aldrich).
Dimethyl sulfoxide (DMSO) solutions of the 2OG derivatives were dry dispensed across 384-well polypropylene assay plates (Greiner) in an approximately threefold and 11-point dilution series (100 μM top concentration; the final DMSO assay concentration was kept constant at 0.5%v/v) using an ECHO 550 acoustic dispenser (Labcyte). […] Each reaction was performed in technical duplicates in adjacent wells of the assay plates; additionally, assays were performed in two independent duplicates on different days using different inhibitor solutions.
The Enzyme Mixture (25 μL/well), containing 0.3 μM His6-FIH in buffer (50 mM Tris, 50 mM NaCl, pH 7.5), was dispensed across the inhibitor-containing 384-well assay plates with a multidrop dispenser (ThermoFischer Scientific) at 20 °C under an ambient atmosphere. The plates were subsequently centrifuged (1000 rpm, 15 s) and incubated for 15 min at 20 °C. The Substrate Mixture (25 μL/well), containing 10.0 μM HIF-1α788–822[37] substrate, 200 μM LAA, 20.0 μM 2OG, and 20.0 μM FAS in buffer (50 mM Tris, 50 mM NaCl, pH 7.5), was added using the multidrop dispenser. The plates were centrifuged (1000 rpm, 15 s) and after incubating for 15 min, the enzyme reaction was stopped by the addition of 10%v/v aqueous formic acid (5 μL/well). The plates were then centrifuged (1000 rpm, 30 s) and analyzed by MS.
MS-analyses were performed using a RapidFire RF 365 high-throughput sampling robot (Agilent) attached to an iFunnel Agilent 6550 accurate-mass quadrupole time-of-flight mass spectrometer operated in the positive ionization mode. Assay samples were aspirated under vacuum for 0.6 s and loaded onto a C4 SPE cartridge. After loading, the C4 SPE cartridge was washed with 0.1%v/v aqueous formic acid to remove non-volatile buffer salts (5.5 s, 1.5 mL/min). […] The mass spectrometer was operated using the MassHunter Workstation B.08.00 software (Agilent), the mass spectrometer parameters were: capillary voltage (4000 V), nozzle voltage (1000 V), fragmentor voltage (365 V), gas temperature (280 °C), gas flow (13 L/min), sheath gas temperature (350 °C), sheath gas flow (12 L/min). The m/z + 2 (for CA1–20) or +3 (for HIF-1α788–822) charge states of the peptide (substrate) and the hydroxylated peptide (product) were used to extract ion chromatogram data, peak areas were integrated using RapidFire Integrator 4.3.0 (Agilent). Data were exported into Microsoft Excel and used to calculate the % conversion of the hydroxylation reaction using the equation: % conversion = 100 × (integral product peptide)/(integral substrate peptide+integral product peptide). […] Z′-factors were calculated according to the cited literature using Microsoft Excel (Supplementary Fig. 26)[83].
SPE-MS FIH inhibition assays were performed as described in the Methods section.
Tris, 50 mM NaCl, pH 7.5, 20 °C). […]

AspH [3] = target: T2, AspH (Homo sapiens, UniProt Q12797); design: method as in PMID 34163896; conditions: hFX-CP101–119 substrate, 330 μM 2OG or 2OG derivative, t = 15 min; cited from earlier work
T2 construct: the tetratricopeptide repeat domain (His6-AspH315-758), was produced and purified as previously reported; made in house
T2 sequence (Q12797 315-758): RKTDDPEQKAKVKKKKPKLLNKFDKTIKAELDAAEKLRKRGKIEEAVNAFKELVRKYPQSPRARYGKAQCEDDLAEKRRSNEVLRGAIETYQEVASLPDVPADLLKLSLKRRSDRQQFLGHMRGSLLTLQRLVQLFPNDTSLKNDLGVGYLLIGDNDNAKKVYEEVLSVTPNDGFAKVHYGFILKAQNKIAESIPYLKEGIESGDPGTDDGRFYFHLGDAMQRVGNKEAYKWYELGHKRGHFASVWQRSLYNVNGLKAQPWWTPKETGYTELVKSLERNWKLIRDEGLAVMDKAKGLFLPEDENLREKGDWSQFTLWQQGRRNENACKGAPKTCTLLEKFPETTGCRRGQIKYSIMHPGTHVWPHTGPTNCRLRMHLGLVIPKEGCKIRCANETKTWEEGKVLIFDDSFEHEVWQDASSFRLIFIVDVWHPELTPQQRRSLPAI

AspH [4] = target: T2, AspH; conditions: cited from earlier work
[5] = […] FIH, 5.0 μM HIF-1α788-822, 10 μM 2OG, mean of two runs
[6] = source data of Table 3, single independent replicates, read-out: FIH IC50, independent replicate
[7] = 0.05 μM AspH, 1.0 μM hFX-CP101-119, 3.0 μM 2OG, ref 21 (supplementary ref 1)
[8] = […] FIH, 5.0 μM HIF-1α788-822, 10 μM 2OG, mean of two runs, read-out: IC50 FIH

T1 sequence (Q9NWT6 whole entry): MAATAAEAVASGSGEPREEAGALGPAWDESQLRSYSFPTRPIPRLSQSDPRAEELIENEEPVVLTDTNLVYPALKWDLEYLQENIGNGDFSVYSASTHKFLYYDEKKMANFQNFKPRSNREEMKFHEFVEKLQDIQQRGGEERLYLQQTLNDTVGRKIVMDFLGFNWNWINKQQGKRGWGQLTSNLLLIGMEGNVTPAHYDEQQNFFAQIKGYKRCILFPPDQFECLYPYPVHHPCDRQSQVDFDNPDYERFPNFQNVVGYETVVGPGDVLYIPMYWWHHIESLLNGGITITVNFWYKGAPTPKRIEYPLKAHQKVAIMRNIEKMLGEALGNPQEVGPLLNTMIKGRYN

Structure (SMILES) | FIH activity, %-substrate conversion (FIH [1]; CA1–20 substrate) | FIH activity, %-substrate conversion (FIH [1]; HIF-1α788–822 substrate) | IC50 FIH (FIH [2]; [5]) | AspH activity, %-substrate conversion (AspH [3]) | IC50 (AspH [4]; NOFD control, supplementary ref 13) | IC50 (FIH [2]; [6]) | IC50 (AspH [4]; [7]) | IC50 (FIH [2]; [8]) | selectivity of AspH over FIH inhibition as judged by IC50-values (FIH [2]) | IC50 AspH (AspH [4]; [7]) | FIH IC50, independent replicate (FIH [2]; source data of Table 3, single independent replicates)
O=C(O)C(=O)[C@@H]1[C@@H](C(=O)O)[C@@H]2C=C[C@H]1C2 (racemic) [compound 24] | ^c<1% ^d<1% | ^c<1% ^d<1% | inactive | <1% | – | – | – | – | – | – | –
O=C(O)C(=O)N[C@H](Cc1ccccc1)C(=O)O [NOFD, N-oxalyl-D-phenylalanine, reference compound] | – | – | – | – | 15.5 µM | – | – | – | – | – | –
CCC(CC(=O)O)C(=O)C(=O)O (stereo not shown) [compound 2, 3-ethyl 2OG] | ~20% | ~2% | – | <1% | – | 4.54 µM and 4.52 µM | ~1.2 µM | – | – | – | –
CCCC(CC(=O)O)C(=O)C(=O)O (stereo not shown) [compound 3, 3-propyl-2OG] | ~10% | < 1% | – | <1% | – | 2.64 µM and 2.68 µM | ~5.7 µM | – | – | – | –
CC(C)(C)CCC(CC(=O)O)C(=O)C(=O)O (stereo not shown) [compound 4] | ^c<1% ^d<1% | ^c<1% ^d<1% | – | <1% | – | – | – | 31 µM | – | – | –
O=C(O)CC(CCCc1ccccc1)C(=O)C(=O)O (stereo not shown) [compound 5] | ^c<1% ^d<1% | ^c<1% ^d<1% | – | <1% | – | – | – | 5.7 µM | – | – | –
O=C(O)CC(Cc1ccccc1)C(=O)C(=O)O (stereo not shown) [compound 6] | ^c<1% ^d<1% | ^c<1% ^d<1% | – | <1% | – | 5.76 µM and 7.01 µM | – | 6.4 µM | – | – | –
O=C(O)CC(Cc1ccc(F)cc1)C(=O)C(=O)O (stereo not shown) [compound 7] | ^c<1% ^d<1% | ^c<1% ^d<1% | – | <1% | – | – | – | 7.5 µM | – | – | –
O=C(O)CC(Cc1ccc(OC(F)(F)F)cc1)C(=O)C(=O)O (stereo not shown) [compound 8] | ^c<1% ^d<1% | ^c<1% ^d<1% | – | <1% | – | – | – | 12.7 µM | – | – | –
COc1ccc(CC(CC(=O)O)C(=O)C(=O)O)cc1 (stereo not shown) [compound 9] | ^c<1% ^d<1% | ^c<1% ^d<1% | – | <1% | – | – | – | 3.6 µM | – | – | –
Cc1cc(C)cc(CC(CC(=O)O)C(=O)C(=O)O)c1 (stereo not shown) [compound 10] | ^c<1% ^d<1% | ^c<1% ^d<1% | inactive | <1% | – | – | – | – | – | – | –
CC1(C)c2ccccc2-c2ccc(CC(CC(=O)O)C(=O)C(=O)O)cc21 (stereo not shown) [compound 11, 3-((9,9-dimethyl-9H-fluoren-2-yl)methyl)-2OG] | ^c<1% ^d<1% | ^c<1% ^d<1% | – | <1% | – | 1.83 µM and 1.86 µM | 4.3 µM | – | – | – | –
CCCC(CC(=O)C(=O)O)C(=O)O (stereo not shown) [compound 15, 4-propyl-2OG] | ~70% | ~5% | – | <1% | – | 15.2 µM and 14.3 µM | – | 14.8 µM | – | – | –
CC(C)CC(CC(=O)C(=O)O)C(=O)O (stereo not shown) [compound 16, 4-isobutyl-2OG] | ~3% | < 1% | – | <1% | – | – | ~0.5 µM | – | ~ 70 fold | – | –
CC(C)(C)CCC(CC(=O)C(=O)O)C(=O)O (stereo not shown) [compound 17] | ^c<1% ^d<1% | ^c<1% ^d<1% | – | <1% | – | – | – | 38.9 µM | – | – | –
O=C(O)C(=O)CC(Cc1ccccc1)C(=O)O (stereo not shown) [compound 19, 4-benzyl-2OG] | ^c<1% ^d<1% | ^c<1% ^d<1% | – | <1% | – | 3.42 µM and 3.64 µM | – | – | – | – | –
O=C(O)C(=O)CC(Cc1ccc2ccccc2c1)C(=O)O (stereo not shown) [compound 20] | ^c<1% ^d<1% | ^c<1% ^d<1% | – | <1% | – | – | – | 2.5 µM | – | – | –
CC1(C)C(C(=O)O)C1C(=O)C(=O)O (stereo not shown) [compound 21] | ^c<1% ^d<1% | ^c<1% ^d<1% | – | <1% | – | – | – | 19.4 µM | – | – | –
O=C(O)C(=O)C1(C(=O)O)CC1 [compound 23] | ^c<1% ^d<1% | ^c<1% ^d<1% | inactive | <1% | – | – | – | – | – | – | –
O=C(O)C(=O)C12CCC(C(=O)O)(CC1)CC2 [compound 25] | ^c<1% ^d<1% | ^c<1% ^d<1% | inactive | ~8% | – | – | – | – | – | inactive | –
O=C(O)C(=O)c1ccccc1C(=O)O [compound 26] | ^c<1% ^d<1% | ^c<1% ^d<1% | inactive | <1% | – | – | – | – | – | inactive | –
O=C(O)C(=O)c1ccc(C(=O)O)s1 [compound 35] | ^c<1% ^d<1% | ^c<1% ^d<1% | inactive | ~15% | – | – | – | – | – | – | not inhibiting
